Results reported in patent publication US9814732B2, “Ulipristal acetate for prevention and treatment of breast tumors” (LABORATOIRE HRA-PHARMA, priority 2012, dated 2017).

Columns and labels:
[1] = tested on: PR target genes (FASN, cyclin A, BCL2, ALPL); assay: qRT-PCR mRNA expression of PR target genes in T-47D cells; assay type: cell-based, human; settings: P and/or UPA 100 nM
Protocol: (§1) After seeding, cells were cultured for 24 h in serum and phenol red free medium. Then treatments were carried out in a phenol red free medium containing 5% dextran-charcoal stripped serum. Cells were treated with P or DEX (100 nM), alone or in combination with UPA, RU (1 nM to 1 μM) or CDB-3877 (100 nM). Control cells were treated with ethanol, at […] 1:1000 final ethanol concentration alone as vehicle or E2 (10 nM).
(§2) Total RNA was extracted using TriZOL Reagent (Invitrogen, Cergy-Pontoise, France).
(§3) 2 μg of total RNA was subjected to reverse transcription (RT) using random primers for 1 h at 37° C. 2 μl of RT product was diluted (1:10) and subjected to quantitative PCR using sequence specific primers (300 nM) and Brillant SYBR GREEN QPCR master mix (Fermentas, Saint-Rémy-lès-Chevreuse, France) on an Mx3000P apparatus (Agilent Technologies, Massy, France). Conditions were 1 cycle at 95° C. for 10 min followed by 40 cycles at 95° C. for 30 sec, 60° C. for 1 min and 72° C. for 30 sec. Gene expression values were normalized to the housekeeping gene 36B4. Time of steroid treatment was chosen to get the optimal stimulation for a given gene. ALPL and G0S8 mRNA were analyzed after 6 h of treatment. IEX-1, FASN, and BCL2 were analyzed after 24 h of treatment. Cyclin A mRNA was analyzed after 24 h for GR responses or 48 h for PR responses.

PR = target: T1, PR (Homo sapiens, UniProt P06401); assay: MMTV-Luc reporter gene transactivation in HBE cells (MMTV-Luc alone); assay type: cell-based; settings: P 100 nM, p<0.05
T1 sequence (P06401 1-933): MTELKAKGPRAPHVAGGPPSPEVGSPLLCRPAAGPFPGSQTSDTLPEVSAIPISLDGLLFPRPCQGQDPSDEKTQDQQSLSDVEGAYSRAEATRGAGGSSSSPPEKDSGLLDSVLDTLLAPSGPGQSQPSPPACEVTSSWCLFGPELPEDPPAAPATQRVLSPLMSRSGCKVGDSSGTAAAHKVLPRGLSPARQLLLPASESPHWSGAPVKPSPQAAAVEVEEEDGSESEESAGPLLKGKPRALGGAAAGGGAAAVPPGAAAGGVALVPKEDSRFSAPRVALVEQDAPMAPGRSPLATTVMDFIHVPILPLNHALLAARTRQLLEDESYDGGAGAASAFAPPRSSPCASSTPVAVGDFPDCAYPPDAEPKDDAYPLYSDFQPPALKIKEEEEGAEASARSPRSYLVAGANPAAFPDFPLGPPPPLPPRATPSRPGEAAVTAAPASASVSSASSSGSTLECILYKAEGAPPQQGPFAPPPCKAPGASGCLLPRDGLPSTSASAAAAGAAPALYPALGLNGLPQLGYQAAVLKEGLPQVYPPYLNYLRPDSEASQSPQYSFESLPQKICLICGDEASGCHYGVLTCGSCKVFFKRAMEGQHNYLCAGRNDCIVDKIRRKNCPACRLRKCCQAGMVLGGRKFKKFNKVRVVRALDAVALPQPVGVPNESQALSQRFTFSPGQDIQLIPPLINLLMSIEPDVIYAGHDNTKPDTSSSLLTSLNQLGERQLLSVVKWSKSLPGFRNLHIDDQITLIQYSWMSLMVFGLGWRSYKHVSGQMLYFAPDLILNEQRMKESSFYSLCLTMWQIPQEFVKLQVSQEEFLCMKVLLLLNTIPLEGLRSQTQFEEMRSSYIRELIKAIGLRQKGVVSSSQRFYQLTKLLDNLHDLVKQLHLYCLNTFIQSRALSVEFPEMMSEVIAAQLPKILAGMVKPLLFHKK
Protocol: T-47D and MCF-7 cell lines were respectively maintained in RPMI 1640 and in DMEM medium supplemented with 10% fetal calf serum (PAA Laboratory, Les Mureaux, France). […] Normal human breast epithelial cell (HBE) primary cultures were obtained from 20 women (aged 17-50 years). […] HBE cells were maintained in HAM F10 medium (PAA Laboratory, Les Mureaux, France) containing hydrocortisone (5 ng/ml), Triiodo-L-thyronine (6.5 ng/ml), choleratoxin (10 ng/ml), transferrin (5 mg/ml), insulin (0.016 U/ml), epidermal growth factor (10 ng/ml) (Sigma, St Quentin Fallavier, France) and 5% human serum (Etablissement Français du Sang). […]
Cells were transfected with reporter gene plasmids containing glucocorticoid and progesterone responsive elements (GRE/PRE): 1) the MMTV-Luc is a Mouse Mammary Tumor Virus Long Terminal Repeat promoter containing one GRE/PRE palindrome and three GRE/PRE hemi-palindromes upstream to firefly luciferase gene in pFC31 vector, 2) the GRELuc contains six copies of GRE/PRE palindrome upstream to firefly luciferase gene in pBL vector. […] At the end of the experiment, cells were lysed and luciferase activity was determined using the Luciferase Assay System (Promega, Charbonnières-les-bains, France). Beta galactosidase activity was assessed using the Galacto Star kit (Applied Biosystems, Courtaboeuf, France) to normalize luciferase activity data.

[2] = tested on: PR target genes (FASN, cyclin A, BCL2, ALPL); assay: qRT-PCR mRNA expression of PR target genes in HBE cells; assay type: cell-based, human; settings: P and/or UPA 100 nM, E2 10 nM
Protocol: as §1, §2, §3

T-47D cells [3] = assay: Tritiated thymidine incorporation (proliferation) in T-47D cells; assay type: cell-based, human; settings: 48 h, 100 nM
Protocol: as §1
(§4) After 24 h of hormonal treatment, cells were incubated with [methyl-1 3H] thymidine (Perkin Elmer, Courtaboeuf, France) for 48 h or 20 h for KBE or cancer cells, respectively at 37° C. After incubation cells were washed twice with PBS 1× and once with 5% trichloroacetic acid (TCA). Cells were incubated in 5% TCA for 15 min at 4° C. and lysed in NaOH 0.1 N for 30 min at 37° C. The total cell lysate was added to 5 ml of Ecolite scintillation liquid (MP biomedical, Illkirch, France) and radioactivity was counted with a β-counter HIDEX 300SL (ScienceTec, Courtaboeuf, France).

HBE cells [4] = assay: Tritiated thymidine incorporation (proliferation) in HBE cells; assay type: cell-based, human; settings: 96 h, 100 nM
Protocol: as §1, §4

[5] = Hormone concentrations in serum of pellet-treated athymic mice; assay type: in vivo; settings: female, NMRI nu/nu athymic, mouse, other: steroid pellets grafted onto the neck, 20 mg pellet (P from day 14, UPA from day 1), day 28, read-out: concentration in mice serum (mean±SEM)
Protocol: Four weeks old ovariectomized female NMRInu/nu 20 athymic mice were purchased from Janvier laboratory (Le Genest Saint Isle, France). Breast tissues samples were obtained from 6 women (aged 29-42 years). Human mammary gland tissue was cut into 2×2×2 mm fragments and 4 fragments were then subcutaneously xenografted onto the back of 4 mice per group. Four treatment groups were performed: control, E2, E2+P and E2+P+UPA. Treatments were administered by grafting steroid pellets onto the neck of each mouse. The experimental conditions were initially determined by using a dose range of hormones mixed with cholesterol into the pellets. Blood sample assays were performed after 2 weeks and 4 weeks of treatment to measure plasmatic hormonal concentrations. Finally, the dose of 0.3 mg for E2 and 20 mg for P and UPA were used, as it provides the expected blood concentrations. For the control groups, pellets containing only cholesterol were used. To reproduce menstrual cycle conditions, mice were grafted on the first day of experiment with cholesterol, E2 and/or UPA containing pellets and on the fourteen day with cholesterol or progesterone containing pellets in control and E2 groups, or in E+P and E2+P+UPA groups, respectively. Twenty eight days after the start of experiment, mice were sacrificed. Blood was collected for each mouse, and serum was frozen at −20° C. until hormone concentrations
Estradiol was measured by radioimmunoassay using Clinical Assays Estradiol-2 (Sorin Biomedica Diagnostics SpA, Saluggia, Italia). Progesterone levels were evaluated by UPLC-MSMS using Acquity UPLC and Quattro Premier XE (Waters, Milford Mass., USA).
UPA concentrations were measured using LC-MS/MS technique by MPI Research (State College, Pa., USA).

T-47D cells [6] = assay: Apoptosis, sub-G1 quantification by flow cytometry in T-47D cells; assay type: cell-based, human; settings: 48 h, 100 nM
Protocol: as §1
(§5) After 96 h or 48 h of hormonal treatment, respectively, for HBE or MCF-7 and T-47D cells, cells were washed in PBS, matrix dissociated with accutase enzyme (PAA laboratory, Les Mureaux, France), and centrifuged 5 minutes at 1350 rpm. Cells were fixed and frozen at −20° C. in 70% ethanol. Before analysis, cells were washed in PBS and stained with 10 μg/ml propidium iodide in PBS (containing 0.835 U/ml RNase A) (Sigma, St Quentin Fallavier, France). For each sample at least 10 000 cells were counted in a BD LSR II flow cytometer (BD Biosciences, Le Pont de Claix, France). After gating out doublets and debris, cycle distribution was analyzed using the ModFit LT software (Verity Software House, USA).

HBE cells [7] = assay: Apoptosis, sub-G1 quantification by flow cytometry in HBE cells; assay type: cell-based, human; settings: 96 h, 100 nM
Protocol: as §1, §5

CC(=O)[C@H]1CC[C@H]2[C@@H]3CCC4=CC(=O)CC[C@]4(C)[C@H]3CC[C@]12C [P, progesterone]
ALPL mRNA expression ([1]; 6 h): strong P mediated induction of ALPL transcript
FASN mRNA expression ([1]; 24 h): induction of FASN mRNA expression
BCL2 mRNA expression (PR response) ([1]; 24 h, p<0.01): decrease of BCL2 mRNA expression by P
cyclin A mRNA expression (PR response) ([1]; 48 h): down regulated cyclin A mRNA expression
luciferase expression (MMTV-Luc) (PR): 1.38±0.11 control fold induction
BCL2 mRNA expression (PR response) ([2]; 24 h): decrease of BCL2 mRNA expression by P
FASN mRNA expression ([2]; 24 h): induction of FASN mRNA expression
cyclin A mRNA expression (PR response) ([2]; 48 h): down regulated cyclin A mRNA expression
cell proliferation ([3H] thymidine incorporation), compound alone (T-47D cells [3]): anti-proliferative activity
cell proliferation ([3H] thymidine incorporation), compound alone (HBE cells [4]): anti-proliferative effect
concentration at 28 days [5]: 13.1 ± 1.14 ng/mL
cell apoptosis (sub-G1 percentage), compound alone (T-47D cells [6]): increased the percentage of sub-G1 cells
cell apoptosis (sub-G1 percentage), compound alone (HBE cells [7]): intense pro-apoptotic effect
